Data taken from patent US8741955B2, “D-serine transporter inhibitors as pharmaceutical compositions for the treatment of central nervous system disorders” (Allergan, Inc., priority 2011, dated 2014).
pIC50: −log10 of the molar value. “Also recorded” adds a separate entry of the source.

Key:
[1] = test system: rat hippocampal astrocytes; experiment: [3H]D-serine transport into primary cultures of rat hippocampal astrocytes; assay type: cell-based; settings: for pIC50: Astrocyte, inhibition of [3H]D-serine transport, rat hippocampal astrocytes, means of at least two determinations; for fraction of D-serine transport represented by the component for which the compound shows higher affinity: two-component inhibition curves in astrocytes
asc-1 = target: T1, asc-1 (Rattus norvegicus, UniProt P63116); experiment: sodium-independent [3H]D-serine transport into rat forebrain synaptosomes; assay type: biochemical; settings: inhibition of [3H]D-serine transport, rat brain synaptosomes; means of at least two determinations
T1 construct: from tissue; host or cells: rat forebrain P2 (synaptosome) fraction
T1 sequence (P63116 1-530): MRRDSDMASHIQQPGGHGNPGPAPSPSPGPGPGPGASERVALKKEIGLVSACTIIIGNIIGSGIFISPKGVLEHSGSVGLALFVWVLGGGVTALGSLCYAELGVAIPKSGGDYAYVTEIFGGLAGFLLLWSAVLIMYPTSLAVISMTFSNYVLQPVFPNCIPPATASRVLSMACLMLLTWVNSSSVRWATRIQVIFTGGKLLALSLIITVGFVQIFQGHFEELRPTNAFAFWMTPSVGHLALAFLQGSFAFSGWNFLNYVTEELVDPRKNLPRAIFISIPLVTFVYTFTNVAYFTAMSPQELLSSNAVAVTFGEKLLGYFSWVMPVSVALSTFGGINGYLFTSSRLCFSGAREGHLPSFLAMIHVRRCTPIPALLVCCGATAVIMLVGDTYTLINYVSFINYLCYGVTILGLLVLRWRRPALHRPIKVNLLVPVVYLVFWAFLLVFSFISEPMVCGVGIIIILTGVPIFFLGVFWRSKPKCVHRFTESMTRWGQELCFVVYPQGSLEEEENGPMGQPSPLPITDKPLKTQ
T1 sequence (Q794F9 1-527 partner): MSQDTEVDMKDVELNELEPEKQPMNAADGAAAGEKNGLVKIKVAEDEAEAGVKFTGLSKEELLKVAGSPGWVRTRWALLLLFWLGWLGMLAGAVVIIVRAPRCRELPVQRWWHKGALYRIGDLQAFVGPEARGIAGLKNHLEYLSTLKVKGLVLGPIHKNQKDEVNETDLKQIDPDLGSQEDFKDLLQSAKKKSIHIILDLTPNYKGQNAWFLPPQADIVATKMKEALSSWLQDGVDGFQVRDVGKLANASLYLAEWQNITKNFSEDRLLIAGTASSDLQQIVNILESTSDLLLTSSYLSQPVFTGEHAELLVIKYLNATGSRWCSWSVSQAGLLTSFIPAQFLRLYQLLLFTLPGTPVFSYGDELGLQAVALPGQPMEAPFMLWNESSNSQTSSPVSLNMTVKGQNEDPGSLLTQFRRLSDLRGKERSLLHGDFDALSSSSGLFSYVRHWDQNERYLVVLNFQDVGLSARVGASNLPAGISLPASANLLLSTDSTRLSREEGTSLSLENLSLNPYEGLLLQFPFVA
Description: Under the assay conditions used, the sodium-independent transport of D-serine by rodent forebrain synaptosomes is mediated by asc-1 (Rutter et al., 2007), and the sodium-dependent transport of D-serine into astrocytes in culture is mediated by an ASCT transporter, ASCT2 according to the literature (Ribeiro et al., 2002).
Synaptosome assays: a P2 fraction of rat forebrain was prepared and assayed immediately. Aliquots of the P2 preparation (approx. 1 mg of original tissue weight) were incubated in sodium-free assay buffer (CholineCl: 128 mM, KCl: 3.5 mM; KH2PO4: 1.5 mM; MgCl2: 1 mM; CaCl2: 1 mM; glucose: 10 mM; Tris-acetate buffer: 10 mM, pH7.4) containing [^3H]D-serine (final concentration of 50 nM) and test compounds in duplicate for 4 mins at room temperature. The synaptosomes containing radiolabel were collected by filtration onto Whatman GF/C filters, and washed twice with ice cold assay buffer. Filters were solubilized in scintillation fluid and radioactivity determined in a beta counter. IC50 values were determined as described for the cell-based assays above.

[2] = test system: amphetamine-induced hyperlocomotion in mice; experiment: amphetamine induced hyperactivity; assay type: in vivo; settings: for effect on amphetamine-induced hyperactivity/hyperlocomotion: systemic administration, amphetamine 2 mg/kg s.c.
Description: C57B/6 male mice (n=5-10/group) were placed in an open field apparatus and their activity was measured for 30 minutes. At 30 minutes, they received a vehicle injection or injection of test compound followed by an injection of amphetamine (2 mg/kg, s.c.) at minute 45. Their activity levels were subsequently measured for another 1 hour post-injection. Total activity for each 5 minute bin (21 total bins) was added to establish the activity curve over the 105 minute testing.

[3] = test system: LTP in the rat hippocampal slice; experiment: LTP in the rat hippocampal slice preparation; settings: 100 μM
human ASCT2 = target: T2, human ASCT2 (Homo sapiens, UniProt Q15758); experiment: transport into HEK cells expressing ASCT2; assay type: cell-based; settings: [3H]L-serine transport, HEK cells
T2 construct: expressed in transfected cells; host or cells: HEK (human embryonic kidney) cells
T2 sequence (Q15758 1-541): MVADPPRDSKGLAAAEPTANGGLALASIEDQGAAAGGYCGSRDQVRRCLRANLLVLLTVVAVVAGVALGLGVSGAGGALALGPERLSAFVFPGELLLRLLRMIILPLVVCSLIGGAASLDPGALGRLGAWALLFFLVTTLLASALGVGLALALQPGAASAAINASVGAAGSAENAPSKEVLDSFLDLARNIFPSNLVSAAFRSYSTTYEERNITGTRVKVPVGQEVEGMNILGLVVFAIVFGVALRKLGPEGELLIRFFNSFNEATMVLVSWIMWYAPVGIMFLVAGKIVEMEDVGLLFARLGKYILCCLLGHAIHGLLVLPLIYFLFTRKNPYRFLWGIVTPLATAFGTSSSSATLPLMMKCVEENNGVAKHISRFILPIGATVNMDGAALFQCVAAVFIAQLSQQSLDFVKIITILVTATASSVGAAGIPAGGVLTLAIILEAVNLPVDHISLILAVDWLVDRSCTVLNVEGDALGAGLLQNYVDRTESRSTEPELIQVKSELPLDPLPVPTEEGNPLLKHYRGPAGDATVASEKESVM
Description: (§1) Cell-based assays: the transport of [^3H]L- or D-serine was measured in primary cultures of rat hippocampal astrocytes or in human embryonic kidney (HEK) cells expressing ASCT transporter sub-types. For the astrocyte assays, cells were plated on either 24- or 96-well plates at a density of 50,000 cells per well. For the HEK assays, cells were plated on coated 96-well plates at a density of 80,000 cells/well. Assays were conducted in duplicate at room temperature in assay buffer consisting of: NaCl: 150 mM, KCl: 2 mM; MgCl2: 1 mM; CaCl2: 1 mM; HEPES: Tris buffer: 10 mM, pH7.4. To assess the sodium-dependence of transport, NaCl was replaced in the assay buffer by equimolar choline chloride. Following aspiration of growth medium and 2 washes with assay buffer, cells were incubated with [^3H]L- or D-serine at a final concentration of 1 μM for 5 min (astrocytes) or 1 min (HEK cells), after which the incubation medium was aspirated and the cells washed twice with ice-cold assay buffer. Cells containing radiolabel were solubilized in 100 μl of 1% Triton-X100 and an aliquot counted in a beta counter. IC50 values were determined over a range of at least 6 concentrations and derived from curve-fitting algorithms available in GraphPad Prism 4.

ASCT2 = settings: Utsunomiya-Tate 1996; Broer 1999; Torres-Zamorano 1998; cited from earlier work
human ASCT1 = target: T3, human ASCT1 (Homo sapiens, UniProt P43007); experiment: transport into HEK cells expressing ASCT1; assay type: cell-based; settings: [3H]L-serine transport, HEK cells
T3 construct: expressed in transfected cells; host or cells: HEK (human embryonic kidney) cells
T3 sequence (P43007 1-532): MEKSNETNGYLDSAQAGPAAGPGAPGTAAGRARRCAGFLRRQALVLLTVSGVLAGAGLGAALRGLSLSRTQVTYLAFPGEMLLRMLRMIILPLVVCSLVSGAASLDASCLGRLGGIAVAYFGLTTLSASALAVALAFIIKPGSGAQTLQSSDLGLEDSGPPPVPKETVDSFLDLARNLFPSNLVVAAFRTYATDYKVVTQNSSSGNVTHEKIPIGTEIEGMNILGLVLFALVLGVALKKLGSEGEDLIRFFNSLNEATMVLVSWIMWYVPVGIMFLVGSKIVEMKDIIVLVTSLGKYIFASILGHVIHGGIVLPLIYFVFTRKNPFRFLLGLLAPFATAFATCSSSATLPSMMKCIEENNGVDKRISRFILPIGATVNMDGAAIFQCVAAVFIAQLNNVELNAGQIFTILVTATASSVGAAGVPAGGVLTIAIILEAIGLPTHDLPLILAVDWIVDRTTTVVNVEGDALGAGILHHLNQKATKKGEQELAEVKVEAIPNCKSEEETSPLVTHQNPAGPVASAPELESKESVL
Description: as §1

| pIC50 [1] | pIC50 (asc-1) | Structure (SMILES) | other results |
| --- | --- | --- | --- |
| 4.55 | 3.59 | N[C@H](C(=O)O)c1ccc(F)cc1 [L-4-fluorophenylglycine] | effect on amphetamine-induced hyperlocomotion at 0.3 mg/kg ip ([2]; 0.3 mg/kg ip): significant effect; effect on amphetamine-induced hyperactivity/hyperlocomotion [2]: potent dose-dependent inhibitor |
| – | 3.34 | N[C@@H](CCC(=O)Nc1ccc([N+](=O)[O-])cc1)C(=O)O [L-GPNA, L-gamma-glutamyl-4-nitroanilide] | effect on LTP in the rat hippocampal slice [3]: enhance LTP |
| 2.52 | 4.21 | N[C@@H](CCC(=O)OCc1ccccc1)C(=O)O [L-glutamate-γ-benzyl ester] | – |
| 2.78 | 3.03 | NC(=O)CC[C@H](N)C(=O)O [L-glutamine] | selectivity for ASCT2 over ASCT1 (human ASCT2): showed selectivity towards ASCT2; also recorded: selective for ASCT2; fraction of D-serine transport represented by the component for which the compound shows higher affinity [1]: approximately 40%; affinity for ASCT2 reported in the literature (ASCT2): 23 to 70 µM |
| 4.24 | 5.02 | N[C@@H](CO)C(=O)O [L-serine] | – |
| 3.22 | 4.53 | N[C@@H](CSc1ccccc1)C(=O)O [S-phenyl-L-cysteine] | – |

Continued, compound first:

| Structure (SMILES) | pIC50 [1] | pIC50 (asc-1) | other results |
| --- | --- | --- | --- |
| NC(C(=O)O)c1ccccc1F (racemic) [DL-2-fluorophenylglycine] | 2.80 | 3.46 | – |
| NC(=O)C[C@H](N)C(=O)O [L-asparagine] | – | 3.18 | – |
| O=C(O)[C@@H]1C[C@@H](O)CN1 [L-trans-4-hydroxyproline] | 4.41 | < 2.00 | fraction of D-serine transport represented by the component for which the compound shows higher affinity [1]: approximately 60%; selectivity for ASCT1 over ASCT2 (human ASCT1; listed as L-t-4OHPro): showed selectivity towards ASCT1; selectivity for ASCT1 over ASCT2 (human ASCT1; listed as L-trans-4OHPro): selective for ASCT1 |
| O=C(O)[C@@H]1C[C@@H](Cc2ccc(Cl)cc2Cl)CN1 [R-gamma-2,4-dichlorobenzyl-L-proline] | – | – | effect on amphetamine-induced hyperactivity/hyperlocomotion [2]: effective |
| N[C@@H](CSCc1ccccc1)C(=O)O [S-benzyl-L-cysteine] | – | 4.07 | – |
